# BindingDB's records for doi:10.1021/jm00086a008 (Wellcome Research Laboratories, 1992)
# Biological target: GAR transformylase (Sus scrofa)
# Assay: In vitro inhibition of hog liver GAR transformylase with (6R)-10-formyl-FH4 as cofactor
row,SMILES,IC50
1,Nc1nc(N)c(CCCSc2ccc(C(=O)NC(CCC(=O)O)C(=O)O)cc2)c(=O)[nH]1 (centres undefined),2.6 µM
2,Nc1nc(N)c(CCCNc2ccc(C(=O)NC(CCC(=O)O)C(=O)O)cc2F)c(=O)[nH]1 (centres undefined),3.5 µM
3,Nc1nc(N)c(CCCNc2ccc(C(=O)NC(CCC(=O)O)C(=O)O)c(Cl)c2)c(=O)[nH]1 (centres undefined),6.6 µM
4,Nc1nc(N)c(CCCOc2ccc(C(=O)NC(CCC(=O)O)C(=O)O)cc2)c(=O)[nH]1 (centres undefined),5.3 µM
5,Nc1nnc(C2CCN(c3ccc(C(=O)NC(CCC(=O)O)C(=O)O)cc3)C2=O)c(=O)[nH]1 (centres undefined),> 100 µM
6,Nc1nc[nH]c(=O)c1CCCNc1ccc(C(=O)NC(CCC(=O)O)C(=O)O)cc1 (centres undefined),52 µM

# Continued by falling IC50, values first:
row,IC50,SMILES
1,18.2 µM,Nc1nc(N)c(CCCCNc2ccc(C(=O)NC(CCC(=O)O)C(=O)O)cc2)c(=O)[nH]1 (centres undefined)
2,6.1 µM,Cc1cc(C(=O)NC(CCC(=O)O)C(=O)O)ccc1NCCCc1c(N)nc(N)[nH]c1=O (centres undefined)
3,3.1 µM,Nc1nc(N)c(CCCNc2ccc(C(=O)NC(CCC(=O)O)C(=O)O)c(F)c2)c(=O)[nH]1 (centres undefined)
